US9763957B2, “Autotaxin inhibitors” (Novartis AG, priority 2013, dated 2017)

Each compound was assayed against Recombinant human ATX (Homo sapiens (Human), UniProt Q13822) (assay: ATX inhibition assay (choline release, Amplex Red fluorescence)). Details: ATX 10 nM, LPC 18:1 10 μM, 37° C., 20 min pre-incubation; mean of n≧2.
Assay type: biochemical
Summary of the method: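 Activity was taken from the slope of resorufin fluorescence (530/590 nm, read every 2 min for 40 min at 37 °C) produced by choline liberated from 10 μM oleoyl LPC.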
With `Cc1nnn(Cc2cc(Cl)ccc2/C=C/C(=O)N2CCC(c3nnc(C4CC4)o3)CC2)n1` [Example 96, (E)-3-(4-Chloro-2-((5-methyl-2H-tetrazol-2-yl)methyl)phenyl)-1-(4-(5-cyclopropyl-1,3,4-oxadiazol-2-yl)piperidin-1-yl)prop-2-en-1-one] the IC50 was 0.0083 µM. `Cc1nnn(Cc2cc(C(F)(F)F)ccc2/C=C/C(=O)N2CCC(N(C)S(=O)(=O)C3CC3)CC2)n1` [Example 112, (E)-N-Methyl-N-(1-(3-(2-((5-methyl-2H-tetrazol-2-yl)methyl)-4-(trifluoromethyl)phenyl)acryloyl)piperidin-4-yl)cyclopropanesulfonamide] was tested, and the IC50 was 0.014 µM. With `Cc1nnn(Cc2cc(Cl)ccc2/C=C/C(=O)N2CCCCC2c2nc(C(C)C)no2)n1` (racemic) [Example 30, (rac)-(E)-3-(4-Chloro-2-((5-methyl-2H-tetrazol-2-yl)methyl)phenyl)-1-(2-(3-isopropyl-1,2,4-oxadiazol-5-yl)piperidin-1-yl)prop-2-en-1-one] the IC50 was 0.011 µM. `Cc1nnn(Cc2cc(C(F)(F)F)ccc2/C=C/C(=O)N2CCCC[C@H]2C(F)(F)F)n1` [Example 121, (S,E)-3-(2-((5-Methyl-2H-tetrazol-2-yl)methyl)-4-(trifluoromethyl)phenyl)-1-(2-(trifluoromethyl)piperidin-1-yl)prop-2-en-1-one] showed an IC50 of 0.0069 µM. `Cc1nnn(Cc2cc(C(F)(F)F)ccc2/C=C/C(=O)N2CCC(Cc3nnc(C)o3)CC2)n1` [Example 81, (E)-1-(4-((5-Methyl-1,3,4-oxadiazol-2-yl)methyl)piperidin-1-yl)-3-(2-((5-methyl-2H-tetrazol-2-yl)methyl)-4-(trifluoromethyl)phenyl)prop-2-en-1-one] was tested, and the IC50 was 0.013 µM. Work on `Cc1nnn(Cc2cc(C(F)(F)F)ccc2/C=C/C(=O)N2CCC(NCCCCc3c[nH]nn3)CC2)n1` [Example 155, (E)-1-(4-((4-(1H-1,2,3-Triazol-4-yl)butyl)amino)piperidin-1-yl)-3-(2-((5-methyl-2H-tetrazol-2-yl)methyl)-4-(trifluoromethyl)phenyl)prop-2-en-1-one] yielded an IC50 of 0.013 µM. For `Cc1nnn(Cc2cc(Cl)ccc2/C=C/C(=O)N2CCC(c3nnc(CC4CCOCC4)o3)CC2)n1` [Example 110, (E)-3-(4-Chloro-2-((5-methyl-2H-tetrazol-2-yl)methyl)phenyl)-1-(4-(5-((tetrahydro-2H-pyran-4-yl)methyl)-1,3,4-oxadiazol-2-yl)piperidin-1-yl)prop-2-en-1-one], the IC50 was 0.0052 µM. For `Cc1nnn(Cc2cc(C(F)(F)F)ccc2/C=C/C(=O)N2CCN(Cc3nonc3C)CC2)n1` [Example 116, (E)-1-(4-((4-Methyl-1,2,5-oxadiazol-3-yl)methyl)piperazin-1-yl)-3-(2-((5-methyl-2H-tetrazol-2-yl)methyl)-4-(trifluoromethyl)phenyl)prop-2-en-1-one], the IC50 was 0.033 µM. Work on `Cc1nnc(CC2CCN(C(=O)/C=C/c3ccc(Cl)cc3Cn3nccn3)CC2)o1` [Example 75, (E)-3-(2-((2H-1,2,3-Triazol-2-yl)methyl)-4-chlorophenyl)-1-(4-((5-methyl-1,3,4-oxadiazol-2-yl)methyl)piperidin-1-yl)prop-2-en-1-one] yielded an IC50 of 1.44 µM. `Cc1nnn(Cc2cc(F)c(F)cc2/C=C/C(=O)N2CCC(Cc3nnc(C)o3)CC2)n1` [Example 42, (E)-3-(4,5-Difluoro-2-((5-methyl-2H-tetrazol-2-yl)methyl)phenyl)-1-(4-((5-methyl-1,3,4-oxadiazol-2-yl)methyl)piperidin-1-yl)prop-2-en-1-one] was tested, and the IC50 was 0.436 µM. In the case of `Cc1nnn(Cc2cc(Cl)ccc2/C=C/C(=O)N2CCC(Cc3ccccc3)CC2)n1` [Example 139, (E)-1-(4-Benzylpiperidin-1-yl)-3-(4-chloro-2-((5-methyl-2H-tetrazol-2-yl)methyl)phenyl)prop-2-en-1-one], the IC50 is reported as 0.067 µM. In the case of `CC(=O)N1CCCN(C(=O)/C=C/c2ccc(Cl)cc2Cn2nnc(C)n2)CC1` [Example 49.26, (E)-1-(4-Acetyl-1,4-diazepan-1-yl)-3-(4-chloro-2-((5-methyl-2H-tetrazol-2-yl)methyl)phenyl)prop-2-en-1-one], the IC50 is reported as 0.16 µM. `Cc1nnn(Cc2cc(C(F)F)ccc2/C=C/C(=O)N2CCC(Cc3nnc(C)o3)CC2)n1` [Example 59, (E)-3-(4-(Difluoromethyl)-2-((5-methyl-2H-tetrazol-2-yl)methyl)phenyl)-1-(4-((5-methyl-1,3,4-oxadiazol-2-yl)methyl)piperidin-1-yl)prop-2-en-1-one] was tested, and the IC50 was 0.021 µM. Work on `Cc1nnn(Cc2cc(Cl)ccc2/C=C/C(=O)N2CCC(c3ccc(F)cc3)CC2)n1` [Example 64, (E)-3-(4-Chloro-2-((5-methyl-2H-tetrazol-2-yl)methyl)phenyl)-1-(4-(4-fluorophenyl)piperidin-1-yl)prop-2-en-1-one] yielded an IC50 of 0.031 µM. In the case of `Cc1nnn(Cc2cc(C(F)(F)F)ccc2/C=C/C(=O)N2CCN(Cc3noc(C)n3)CC2)n1` [Example 93, (E)-1-(4-((5-Methyl-1,2,4-oxadiazol-3-yl)methyl)piperazin-1-yl)-3-(2-((5-methyl-2H-tetrazol-2-yl)methyl)-4-(trifluoromethyl)phenyl)prop-2-en-1-one], the IC50 is reported as 0.01 µM. `Cc1nnn(Cc2ccc(F)cc2/C=C/C(=O)N2CCC(Cc3nnc(C)o3)CC2)n1` [Example 79, (E)-3-(5-Fluoro-2-((5-methyl-2H-tetrazol-2-yl)methyl)phenyl)-1-(4-((5-methyl-1,3,4-oxadiazol-2-yl)methyl)piperidin-1-yl)prop-2-en-1-one] was tested, and the IC50 was 3.15 µM. `Cc1nnn(Cc2cc(Cl)ccc2/C=C/C(=O)N2CCC(CCNC(=O)c3c[nH]nn3)CC2)n1` [Example 145, (E)-N-(2-(1-(3-(4-Chloro-2-((5-methyl-2H-tetrazol-2-yl)methyl)phenyl)acryloyl)piperidin-4-yl)ethyl)-1H-1,2,3-triazole-4-carboxamide] gave an IC50 of 0.013 µM. Work on `Cc1nnn(Cc2cc(Cl)ccc2/C=C/C(=O)N2CCC(c3ncc(C)o3)CC2)n1` [Example 24, (E)-3-(4-Chloro-2-((5-methyl-2H-tetrazol-2-yl)methyl)phenyl)-1-(4-(5-methyloxazol-2-yl)piperidin-1-yl)prop-2-en-1-one] yielded an IC50 of 0.004 µM. `Cc1nnn(Cc2cc(Cl)ccc2/C=C/C(=O)N2CCC(Cc3nnc(CN4CCOCC4)o3)CC2)n1` [Example 136, (E)-3-(4-Chloro-2-((5-methyl-2H-tetrazol-2-yl)methyl)phenyl)-1-(4-((5-(morpholinomethyl)-1,3,4-oxadiazol-2-yl)methyl)piperidin-1-yl)prop-2-en-1-one] showed an IC50 of 0.032 µM. In the case of `Cc1nnn(Cc2cccc(F)c2/C=C/C(=O)N2CCC(Cc3nnc(C)o3)CC2)n1` [Example 44, (E)-3-(2-Fluoro-6-((5-methyl-2H-tetrazol-2-yl)methyl)phenyl)-1-(4-((5-methyl-1,3,4-oxadiazol-2-yl)methyl)piperidin-1-yl)prop-2-en-1-one], the IC50 is reported as 0.535 µM. `Cc1nnn(Cc2cc(Cl)ccc2/C=C/C(=O)N2CCC(c3nnc(CN4CCOCC4)o3)CC2)n1` [Example 134, (E)-3-(4-Chloro-2-((5-methyl-2H-tetrazol-2-yl)methyl)phenyl)-1-(4-(5-(morpholinomethyl)-1,3,4-oxadiazol-2-yl)piperidin-1-yl)prop-2-en-1-one] gave an IC50 of 0.012 µM. `Cc1nnn(Cc2cc(Cl)ccc2/C=C/C(=O)N2CCCC(c3nc(C(C)C)no3)C2)n1` (single isomer, unassigned) [Example 34b, (R or S, E)-3-(4-chloro-2-((5-methyl-2H-tetrazol-2-yl)methyl)phenyl)-1-(3-(3-isopropyl-1,2,4-oxadiazol-5-yl)piperidin-1-yl)prop-2-en-1-one] gave an IC50 of 0.149 µM. `Cc1nnn(Cc2cc(C(F)(F)F)ccc2/C=C/C(=O)N2CCC[C@H]2C)n1` [Example 117, (R,E)-3-(2-((5-Methyl-2H-tetrazol-2-yl)methyl)-4-(trifluoromethyl)phenyl)-1-(2-methylpyrrolidin-1-yl)prop-2-en-1-one] was tested, and the IC50 was 0.263 µM. `COC(=O)C1CCN(C(=O)/C=C/c2ccc(C(F)(F)F)cc2Cn2nnc(C)n2)CC1` [Example 67, (E)-Methyl 1-(3-(2-((5-methyl-2H-tetrazol-2-yl)methyl)-4-(trifluoromethyl)phenyl)acryloyl)piperidine-4-carboxylate] gave an IC50 of 0.0088 µM. For `Cc1nnn(Cc2cc(C(F)(F)F)ccc2/C=C/C(=O)N2C[C@@H](F)C[C@H]2CO)n1` [Example 131, (E)-1-((2S,4S)-4-Fluoro-2-(hydroxymethyl)pyrrolidin-1-yl)-3-(2-((5-methyl-2H-tetrazol-2-yl)methyl)-4-(trifluoromethyl)phenyl)prop-2-en-1-one], the IC50 was 0.023 µM. `Cc1nnn(Cc2cc(Cl)ccc2/C=C/C(=O)N2CCC(O)(Cc3ccccc3)CC2)n1` [Example 138, (E)-1-(4-Benzyl-4-hydroxypiperidin-1-yl)-3-(4-chloro-2-((5-methyl-2H-tetrazol-2-yl)methyl)phenyl)prop-2-en-1-one-N] was tested, and the IC50 was 0.0063 µM. In the case of `Cc1nnn(Cc2cc(Cl)ccc2/C=C/C(=O)N2CCN(C3CCN(C(=O)c4c[nH]nn4)CC3)CC2)n1` [Example 149, (E)-1-(4-(1-(1H-1,2,3-Triazole-4-carbonyl)piperidin-4-yl)piperazin-1-yl)-3-(4-chloro-2-((5-methyl-2H-tetrazol-2-yl)methyl)phenyl)prop-2-en-1-one], the IC50 is reported as 0.0049 µM. `Cc1nnn(Cc2cc(Cl)ccc2/C=C/C(=O)N2CCN(c3ncccc3C#N)CC2)n1` [Example 49.28, (E)-2-(4-(3-(4-Chloro-2-((5-methyl-2H-tetrazol-2-yl)methyl)phenyl)acryloyl)piperazin-1-yl)nicotinonitrile] showed an IC50 of 0.01 µM. Work on `Cc1nnn(Cc2cc(Cl)ccc2/C=C/C(=O)N2CC3CCC2CN3Cc2coc(C)n2)n1` (stereo not drawn) [Example 61, (E)-3-(4-Chloro-2-((5-methyl-2H-tetrazol-2-yl)methyl)phenyl)-1-(5-((2-methyloxazol-4-yl)methyl)-2,5-diazabicyclo[2.2.2]octan-2-yl)prop-2-en-1-one] yielded an IC50 of 0.045 µM. `Cc1nnn(Cc2cc(C(F)(F)F)ccc2/C=C/C(=O)N2CCC(CCOCCc3cnn[nH]3)CC2)n1` [Example 157, (E)-1-(4-(2-(2-(1H-1,2,3-Triazol-5-yl)ethoxy)ethyl)piperidin-1-yl)-3-(2-((5-methyl-2H-tetrazol-2-yl)methyl)-4-(trifluoromethyl)phenyl)prop-2-en-1-one] gave an IC50 of 0.0092 µM.
